{"source": "patent US12391672B2", "about": "“Solid forms comprising (S)-4-(4-(4-(((2-(2,6-dioxopiperidin-3-yl)-1-oxoisoindolin-4-yl)oxy)methyl)benzyl)piperazin-1-yl)-3-fluorobenzonitrile and salts thereof, and compositions comprising and methods of using the same” (Celgene Corporation, priority 2019, dated 2025)", "assay_type_in_all_cases": "physicochemical", "key": {"[1]": {"assay": "Solubility of polymorphic forms in physiologically relevant media and final pH", "excerpt": "Solubility data of the several polymorphic forms of Compound 1 in physiologically relevant media and the final pH of these solutions are summarized in the following tables."}, "[2]": {"assay": "Dynamic vapor sorption / hygroscopicity", "how_it_was_run": "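Sample equilibrated at 50% r.h. on a microbalance, then one cycle at ±5% r.h. h^−1 spanning 0–95% r.h., with 5 h holds at 0% and 95% r.h. and 2 h holds at 50% r.h., run either desorption-first or sorption-first. Hygroscopicity classed from mass gain at 85% r.h. relative to initial mass.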"}, "[3]": {"assay": "Solubility determination (15 minutes at room temperature, HPLC)", "conditions": "fifteen minutes", "method": "1 mL of buffer or of ultrapure (resistivity≥18.2 Mf cm) water was added to a pre-weighed, approximately twenty milligram aliquot of the substance to be measured. The resulting suspensions were stirred for 15 minutes at room temperature with magnetic stirrers. The suspensions were centrifuged and filtered through Millipore 0.2 μm PVDF filters, and the concentration of each filtrate (i.e., saturated solution) was determined using a general HPLC method. The pH of each saturated solution was measured with a Metrohm 713 pH meter.\nTo assess whether Form K and Form K′ are likely to have different bioavailabilities, comparative solubility measurements were carried out in physiologically relevant media. Samples of Form K and Form K′ were separately equilibrated in pure water, pH 2.0 buffer, and pH 6.8 buffer for fifteen minutes, and the solids were then separated from the solvents. The concentration of the compound in the filtrate (i.e., the solubility) was assessed in each case, and the solid residues were also monitored by powder X-ray diffraction. All six solid residues correspond to Form K, confirming that Form K′ rapidly incorporates water into its lattice when suspended in an aqueous environment even when the solubility is low. While the solubilities in pure water and at pH 6.8 were below the limit of quantitation of 0.0001 mg/mL, the solubilities at pH 2.0 could be measured. […] Thus, the bioavailabilities of the two forms are expected to be similar, and precise control of the water content (and, thereby, the solid form) is presumably not necessary from a scientific point of view. Given that the critical water activity is in the range aH2O=0.11-0.17, the hydrated Form K is likely to be the more easily stabilized of the two forms under ambient laboratory conditions."}, "[4]": {"assay": "Storage at controlled relative humidities (Form K / Form K′)", "excerpt": "It was noticed that after Form K was dried, the XRPD peaks of Form K shifted to a higher value and the resulting XRPD pattern is called Form K′. To further understand the relationships between the two forms, free base Form K and Form K′ were placed on XRPD sample holders and stored in a closed Jars with saturated salt solutions for RH controls at ambient temperature, respectively. […] The XRPD diffractograms of the samples after 2-day storage are presented in FIG. 132 and FIG. 133, respectively. […] Since the peaks of Form K shifted to higher 2-theta value as Form K loses water molecules to Form K′, Form K and Form K′ are on a continuum."}, "[5]": {"assay": "Competitive slurry and slurry stability experiments", "conditions": "acetone/water, water contents 5% vol. and higher, room temperature and 45° C.", "method": "Form B was obtained at room temperature while form C was obtained at 45° C. in acetone alone.\nThe HBr salt was largely insoluble in various buffers when 1 mg/mL slurries were prepared and the mother liquor concentration determined (by HPLC): <0.05 mg/mL in all buffers tested."}}, "note": "Several values for one entry are separate records, joined by “and”; a condition that tells them apart may be missing. Equal entries are not always repeated."}
{"compound": "N#Cc1ccc(N2CCN(Cc3ccc(COc4cccc5c4CN([C@H]4CCC(=O)NC4=O)C5=O)cc3)CC2)c(F)c1.O", "note": "[Form K of a free base of Compound 1]", "values": [{"measurement": "Solubility", "setting": "[1]; FaSSIF", "result": 0.001, "unit": "mg/mL"}, {"measurement": "Solubility", "setting": "[1]; FeSSiF", "result": 0.005, "unit": "mg/mL"}, {"measurement": "Solubility", "setting": "[1]; SGF with pepsin", "result": 0.420, "unit": "mg/mL"}, {"measurement": "Solubility", "setting": "[1]; Water", "result": "<LOQ"}, {"measurement": "Solubility", "setting": "[1]; pH 1 buffer HC1/NaC1", "result": 0.133, "unit": "mg/mL"}, {"measurement": "Solubility", "setting": "[1]; pH 3 buffer (phosphate)", "result": 0.090, "unit": "mg/mL"}, {"measurement": "Solubility", "setting": "[1]; pH 4 buffer (acetate)", "result": 0.011, "unit": "mg/mL"}, {"measurement": "Solubility", "setting": "[1]; pH 5 buffer (acetate)", "result": 0.001, "unit": "mg/mL"}, {"measurement": "Final pH", "setting": "[1]; solubility sample in FaSSIF", "result": 6.33}, {"measurement": "Final pH", "setting": "[1]; solubility sample in FeSSiF", "result": 5.02}, {"measurement": "Final pH", "setting": "[1]; solubility sample in SGF with pepsin", "result": 1.47}, {"measurement": "Final pH", "setting": "[1]; solubility sample in Water", "result": 6.71}, {"measurement": "Final pH", "setting": "[1]; solubility sample in pH 1 buffer HC1/NaC1", "result": 1.20}, {"measurement": "Final pH", "setting": "[1]; solubility sample in pH 3 buffer (phosphate)", "result": 3.09}, {"measurement": "Final pH", "setting": "[1]; solubility sample in pH 4 buffer (acetate)", "result": 3.98}, {"measurement": "Final pH", "setting": "[1]; solubility sample in pH 5 buffer (acetate)", "result": 5.01}, {"measurement": "plateau in water uptake", "setting": "[2]; DVS sorption, corresponding to ~1 mole of water", "result": "~3.2", "unit": "% w/w"}, {"measurement": "hygroscopicity", "setting": "[2]; DVS, class by mass gain at 85% r.h.", "result": "slightly hygroscopic (slightly hygroscopic (mass increase of <2% but ≥0.2%))"}, {"measurement": "solid form after DVS cycle", "setting": "[2]; after the DVS humidity cycle", "result": "stable with respect to application of a DVS cycle"}, {"measurement": "DVS mass increase", "setting": "[2]; relative humidity from about 5% to about 95%", "result": "about 3.2%"}, {"measurement": "solubility at pH 2.0", "setting": "[3]; pH 2.0 buffer", "result": 0.96, "unit": "mg/mL"}, {"measurement": "solid residue after solubility measurement (powder X-ray diffraction)", "setting": "[3]; pure water, pH 2.0 buffer and pH 6.8 buffer", "result": "Form K"}, {"measurement": "form conversion on storage (XRPD)", "setting": "[4]; 11% RH, ambient temperature", "result": "converts to K′"}, {"measurement": "critical water activity range for interconversion of Form K and Form K′", "setting": "[4]; aH2O", "result": "0.11-0.22 and 0.11-0.17"}, {"measurement": "PXRD result after storage", "setting": "[4]; stored at 17% r.h. and r.t. for 5.5 d", "result": "Form K"}, {"measurement": "competitive slurry of Form B, Form C and Form K", "setting": "[5]", "result": "most stable form"}]}
